In US11076594B2, “Pyrazolone compound or salt thereof, preparation method therefor, herbicide composition and use thereof” (QINGDAO KINGAGROOT CHEMICAL COMPOUNDS CO., LTD., priority 2015, dated 2021):

Experiments:
Type in all cases: in vivo
Indian mallow = test: weed control effect in post-emergence stage (Table 1); set-up: key: Level 10: completely dead; Level 9: above 95% growth control rate; Level 8: above 90% growth control rate; Level 7: above 80% growth control rate; Level 6: above 70% growth control rate; Level 5: above 60% growth control rate; Level 4: above 50% growth control rate; Level 3: above 20% growth control rate; Level 2: 5%-20% growth control rate; Level 1: below 5% growth control rate; details: post-emergence spray at 4-5 leaf stage, 250 g/ha active ingredient with 450 kg/ha water, rated after 3 weeks in greenhouse
Summary of the method: (§1)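 Fresh-weight-based growth control rate was assessed 3 weeks after spraying. Test compound, dissolved in acetone, with tween 80 added and diluted in water, was sprayed onto greenhouse-grown, pot-cultured weeds and crop plants at 4-5 leaves, 2-3 weeks post-sowing.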

bidens bipinnata = test: as above; set-up: key: Level 10: completely dead; Level 9: above 95% growth control rate; Level 8: above 90% growth control rate; Level 7: above 80% growth control rate; Level 6: above 70% growth control rate; Level 5: above 60% growth control rate; Level 4: above 50% growth control rate; Level 3: above 20% growth control rate; Level 2: 5%-20% growth control rate; Level 1: below 5% growth control rate; details: post-emergence spray at 4-5 leaf stage, 250 g/ha active ingredient with 450 kg/ha water, rated after 3 weeks in greenhouse
Summary of the method: as §1

crab grass = test: as above; set-up: key: Level 10: completely dead; Level 9: above 95% growth control rate; Level 8: above 90% growth control rate; Level 7: above 80% growth control rate; Level 6: above 70% growth control rate; Level 5: above 60% growth control rate; Level 4: above 50% growth control rate; Level 3: above 20% growth control rate; Level 2: 5%-20% growth control rate; Level 1: below 5% growth control rate; details: post-emergence spray at 4-5 leaf stage, 250 g/ha active ingredient with 450 kg/ha water, rated after 3 weeks in greenhouse
Summary of the method: as §1

echinochloa = test: as above; set-up: key: Level 10: completely dead; Level 9: above 95% growth control rate; Level 8: above 90% growth control rate; Level 7: above 80% growth control rate; Level 6: above 70% growth control rate; Level 5: above 60% growth control rate; Level 4: above 50% growth control rate; Level 3: above 20% growth control rate; Level 2: 5%-20% growth control rate; Level 1: below 5% growth control rate; details: post-emergence spray at 4-5 leaf stage, 250 g/ha active ingredient with 450 kg/ha water, rated after 3 weeks in greenhouse
Summary of the method: as §1

foxtail = test: as above; set-up: key: Level 10: completely dead; Level 9: above 95% growth control rate; Level 8: above 90% growth control rate; Level 7: above 80% growth control rate; Level 6: above 70% growth control rate; Level 5: above 60% growth control rate; Level 4: above 50% growth control rate; Level 3: above 20% growth control rate; Level 2: 5%-20% growth control rate; Level 1: below 5% growth control rate; details: post-emergence spray at 4-5 leaf stage, 250 g/ha active ingredient with 450 kg/ha water, rated after 3 weeks in greenhouse
Summary of the method: as §1

rorippa indica = test: as above; set-up: key: Level 10: completely dead; Level 9: above 95% growth control rate; Level 8: above 90% growth control rate; Level 7: above 80% growth control rate; Level 6: above 70% growth control rate; Level 5: above 60% growth control rate; Level 4: above 50% growth control rate; Level 3: above 20% growth control rate; Level 2: 5%-20% growth control rate; Level 1: below 5% growth control rate; details: post-emergence spray at 4-5 leaf stage, 250 g/ha active ingredient with 450 kg/ha water, rated after 3 weeks in greenhouse
Summary of the method: as §1

wheat [1] = test: post-emergence stage experiment, crop (Table 1); details: post-emergence spray at 4-5 leaf stage, 250 g/ha active ingredient with 450 kg/ha water, rated after 3 weeks in greenhouse
Summary of the method: as §1

rice = test: post-emergence stage experiment, crop (Table 1); details: post-emergence spray at 4-5 leaf stage, 250 g/ha active ingredient with 450 kg/ha water, rated after 3 weeks in greenhouse
Summary of the method: as §1

alopecurus japonicas = test: wheat field resistant weed control, greenhouse spray at 4 leaf stage; set-up: key: Level 10: completely dead; Level 9: above 95% growth control rate; Level 8: above 90% growth control rate; Level 7: above 80% growth control rate; Level 6: above 70% growth control rate; Level 5: above 60% growth control rate; Level 4: above 50% growth control rate; Level 3: above 20% growth control rate; Level 2: 5%-20% growth control rate; Level 1: below 5% growth control rate; details: sprayed at 4 leaf stage, 4 weeks after treatment, resistant to ALS and ACCase inhibitor herbicides
Method: (§2) The activity level standard of harmful plant destruction (i.e. growth control rate) is as follows:
(§3) The above described growth control rate is fresh weight control rate.
(§4) The seeds of alopecurus japonicas, flixweed, shepherd's purse, corn gromwell, chickweed, beckmannia syzigachne, and annual ryegrass and wheat seeds were put into a plastic pot loaded with soil, and then covered with 0.5-2 cm soil, the seeds were allowed to grow in good greenhouse environment. The test plants were treated at 4 leaf stage 2-3 weeks after sowing. The test compounds of the present invention were dissolved in acetone respectively, then added with methyl oleate emulsion and diluted by certain amount of water to certain concentration. The solution was sprayed to the plant with a sprayer. Then the plants were cultured for 4 weeks in greenhouse.

wheat [2] = test: wheat field test, crop selectivity, greenhouse spray at 4 leaf stage; details: sprayed at 4 leaf stage, 4 weeks after treatment
Method: as §2, §3, §4

corn = test: post-emergence stage experiment, crop (Table 1); details: post-emergence spray at 4-5 leaf stage, 250 g/ha active ingredient with 450 kg/ha water, rated after 3 weeks in greenhouse
Summary of the method: as §1

CCS(=O)(=O)Oc1c(C(=O)c2ccc(C(F)(F)F)c(N3CCCC3=O)c2Cl)c(C)nn1C [Compound 019]
weed control effect, Indian mallow (level) (Indian mallow): 10 | weed control effect, Bidens bipinnata (level) (bidens bipinnata): 9 (Level 9: above 95% growth control rate) | weed control effect, Crab grass (level) (crab grass): 9 (Level 9: above 95% growth control rate) | weed control effect, Echinochloa (level) (echinochloa): 9 (Level 9: above 95% growth control rate) | weed control effect, Green foxtail (level) (foxtail): 10 | weed control effect, Rorippa indica (level) (rorippa indica): 9 (Level 9: above 95% growth control rate) | effect on crop, Wheat (level) (wheat [1]): 0 | effect on crop, Rice (level) (rice): 7 (Level 7: above 80% growth control rate) | Alopecurus japonicas weed controlling effect (activity level) (alopecurus japonicas; 1 g/mu): 1 (Level 1: below 5% growth control rate) | Alopecurus japonicas weed controlling effect (activity level) (alopecurus japonicas; 2 g/mu): 4 (Level 4: above 50% growth control rate) | Alopecurus japonicas weed controlling effect (activity level) (alopecurus japonicas; 4 g/mu): 6 (Level 6: above 70% growth control rate) | Alopecurus japonicas weed controlling effect (activity level) (alopecurus japonicas; 8 g/mu): 6 (Level 6: above 70% growth control rate) | Wheat (activity level, crop damage) (wheat [2]; 2 g/mu): 0 | Wheat (activity level, crop damage) (wheat [2]; 4 g/mu): 0 | Wheat (activity level, crop damage) (wheat [2]; 8 g/mu): 2 (Level 2: 5%-20% growth control rate) | Wheat (activity level, crop damage) (wheat [2]; 16 g/mu): 3 (Level 3: above 20% growth control rate) | Wheat (activity level, crop damage) (wheat [2]; 32 g/mu): 4 (Level 4: above 50% growth control rate)

COC(=O)Oc1c(C(=O)c2ccc(C(F)(F)F)c(N3CCCC3=O)c2Cl)c(C)nn1C [Compound 020]
weed control effect, Indian mallow (level) (Indian mallow): 10 | weed control effect, Bidens bipinnata (level) (bidens bipinnata): 9 (Level 9: above 95% growth control rate) | weed control effect, Crab grass (level) (crab grass): 10 | weed control effect, Echinochloa (level) (echinochloa): 10 | weed control effect, Green foxtail (level) (foxtail): 10 | weed control effect, Rorippa indica (level) (rorippa indica): 9 (Level 9: above 95% growth control rate) | effect on crop, Wheat (level) (wheat [1]): 0 | effect on crop, Rice (level) (rice): 8 (Level 8: above 90% growth control rate) | Alopecurus japonicas weed controlling effect (activity level) (alopecurus japonicas; 1 g/mu): 1 (Level 1: below 5% growth control rate) | Alopecurus japonicas weed controlling effect (activity level) (alopecurus japonicas; 2 g/mu): 6 (Level 6: above 70% growth control rate) | Alopecurus japonicas weed controlling effect (activity level) (alopecurus japonicas; 4 g/mu): 6 (Level 6: above 70% growth control rate) | Alopecurus japonicas weed controlling effect (activity level) (alopecurus japonicas; 8 g/mu): 8 (Level 8: above 90% growth control rate) | Wheat (activity level, crop damage) (wheat [2]; 2 g/mu): 1 (Level 1: below 5% growth control rate) | Wheat (activity level, crop damage) (wheat [2]; 4 g/mu): 3 (Level 3: above 20% growth control rate) | Wheat (activity level, crop damage) (wheat [2]; 8 g/mu): 3 (Level 3: above 20% growth control rate) | Wheat (activity level, crop damage) (wheat [2]; 16 g/mu): 4 (Level 4: above 50% growth control rate) | Wheat (activity level, crop damage) (wheat [2]; 32 g/mu): 4 (Level 4: above 50% growth control rate)

CCOc1c(C(=O)Oc2c(C(=O)c3ccc(C(F)(F)F)c(N4CCCC4=O)c3Cl)c(C)nn2C)cnn1C [Compound 021]
weed control effect, Indian mallow (level) (Indian mallow): 9 (Level 9: above 95% growth control rate) | weed control effect, Crab grass (level) (crab grass): 7 (Level 7: above 80% growth control rate) | weed control effect, Echinochloa (level) (echinochloa): 6 (Level 6: above 70% growth control rate) | weed control effect, Green foxtail (level) (foxtail): 10 | effect on crop, Corn (level) (corn): 3 (Level 3: above 20% growth control rate) | effect on crop, Wheat (level) (wheat [1]): 3 (Level 3: above 20% growth control rate) | effect on crop, Rice (level) (rice): 5 (Level 5: above 60% growth control rate) | Alopecurus japonicas weed controlling effect (activity level) (alopecurus japonicas; 1 g/mu): 2 (Level 2: 5%-20% growth control rate) | Alopecurus japonicas weed controlling effect (activity level) (alopecurus japonicas; 2 g/mu): 6 (Level 6: above 70% growth control rate) | Alopecurus japonicas weed controlling effect (activity level) (alopecurus japonicas; 4 g/mu): 10 | Alopecurus japonicas weed controlling effect (activity level) (alopecurus japonicas; 8 g/mu): 10 | Wheat (activity level, crop damage) (wheat [2]; 2 g/mu): 0 | Wheat (activity level, crop damage) (wheat [2]; 4 g/mu): 1 (Level 1: below 5% growth control rate) | Wheat (activity level, crop damage) (wheat [2]; 8 g/mu): 4 (Level 4: above 50% growth control rate) | Wheat (activity level, crop damage) (wheat [2]; 16 g/mu): 4 (Level 4: above 50% growth control rate) | Wheat (activity level, crop damage) (wheat [2]; 32 g/mu): 4 (Level 4: above 50% growth control rate)

CCOc1c(C(=O)Oc2c(C(=O)c3ccc(C(F)(F)F)c(N4CCCC4=O)c3Cl)c(C3CC3)nn2C)cnn1C [Compound 026]
weed control effect, Indian mallow (level) (Indian mallow): 10 | weed control effect, Bidens bipinnata (level) (bidens bipinnata): 5 (Level 5: above 60% growth control rate) | weed control effect, Crab grass (level) (crab grass): 10 | weed control effect, Echinochloa (level) (echinochloa): 6 (Level 6: above 70% growth control rate) | weed control effect, Green foxtail (level) (foxtail): 10 | effect on crop, Corn (level) (corn): 4 (Level 4: above 50% growth control rate) | effect on crop, Wheat (level) (wheat [1]): 4 (Level 4: above 50% growth control rate) | effect on crop, Rice (level) (rice): 8 (Level 8: above 90% growth control rate) | Alopecurus japonicas weed controlling effect (activity level) (alopecurus japonicas; 1 g/mu): 8 (Level 8: above 90% growth control rate) | Alopecurus japonicas weed controlling effect (activity level) (alopecurus japonicas; 2 g/mu): 10 | Alopecurus japonicas weed controlling effect (activity level) (alopecurus japonicas; 4 g/mu): 10 | Alopecurus japonicas weed controlling effect (activity level) (alopecurus japonicas; 8 g/mu): 10 | Wheat (activity level, crop damage) (wheat [2]; 2 g/mu): 1 (Level 1: below 5% growth control rate) | Wheat (activity level, crop damage) (wheat [2]; 4 g/mu): 3 (Level 3: above 20% growth control rate) | Wheat (activity level, crop damage) (wheat [2]; 8 g/mu): 8 (Level 8: above 90% growth control rate) | Wheat (activity level, crop damage) (wheat [2]; 16 g/mu): 8 (Level 8: above 90% growth control rate) | Wheat (activity level, crop damage) (wheat [2]; 32 g/mu): 8 (Level 8: above 90% growth control rate)

CCn1nc(C2CC2)c(C(=O)c2ccc(C(F)(F)F)c(-n3cc(C)cn3)c2Cl)c1OC(=O)c1cn(C)nc1C [Compound 145]
weed control effect, Indian mallow (level) (Indian mallow): 4 (Level 4: above 50% growth control rate) | weed control effect, Bidens bipinnata (level) (bidens bipinnata): 10 | weed control effect, Crab grass (level) (crab grass): 4 (Level 4: above 50% growth control rate) | weed control effect, Echinochloa (level) (echinochloa): 10 | weed control effect, Green foxtail (level) (foxtail): 8 (Level 8: above 90% growth control rate) | weed control effect, Rorippa indica (level) (rorippa indica): 1 (Level 1: below 5% growth control rate) | effect on crop, Corn (level) (corn): 0 | effect on crop, Wheat (level) (wheat [1]): 1 (Level 1: below 5% growth control rate) | effect on crop, Rice (level) (rice): 9 (Level 9: above 95% growth control rate)
